# Laboratory results published in patent publication US4461902A, “Thiazolidine derivatives and production thereof” (Takeda Chemical Industries, Ltd., priority 1982, dated 1984).
# System: blood sugar
# Experiment: Hypoglycemic activity in mice (blood sugar by the glucose oxidase method)
# Format: in vivo, KKA^y mice (female, 10 weeks of age)
# Conditions: KKA^y mice; 0.02% in powder diet CE2 for 4 days; activity of test compound 1 regarded as 100
# Source text: KKA^y mice (female, 10 weeks of age, 5 mice/group) received ad libitum powder diet CE2 (CLEA JAPAN) containing 0.02% of the compounds indicated below in the table mixed therewith for 4 days. Water was available ad libitum throughout the period. Blood sample were taken from the orbital vein and assayed for blood sugar by the glucose oxidase method.
row,Compound,Hypoglycemic activity (relative potency)
1,"5-[4-(2-hydroxy-1-methylcyclohexylmethoxy)benzyl]thiazolidine-2,4-dione [Test compound 4]",118
2,"C[C@@]1(COc2ccc(CC3SC(=O)NC3=O)cc2)CCC[C@@H](O)C1 (relative stereo) [Test compound 6, 5-[4-(t-3-hydroxy-1-methyl-r-1-cyclohexylmethoxy)benzyl]-thiazolidine-2,4-dione]",369
3,C[C@@]1(COc2ccc(CC3SC(=O)NC3=O)cc2)CCC[C@H](O)C1 (relative stereo) [compound 7],125
4,"CC1(COc2ccc(CC3SC(=O)NC3=O)cc2)CCCCC1=O (stereo not drawn) [Test compound 3, 5-[4-(1-methyl-2-oxocyclohexylmethoxy)-benzyl]thiazolidine-2,4-dione]",179
5,CC1(COc2ccc(CC3SC(=O)NC3=O)cc2)CCCCC1O (stereo not drawn) [compound 4],114

# System: not listed separately
# Experiment: Toxicity (LD50) in mice
# Conditions: mouse, in vivo
row,Compound,LD50
1,"CC1(COc2ccc(CC3SC(=O)NC3=O)cc2)CCCC(=O)C1 (stereo not drawn) [5-[4-(1-methyl-3-oxocyclohexylmethoxy)benzyl]thiazolidine-2,4-dione]",≥ 5000 mg/kg
2,"CC1(COc2ccc(CC3SC(=O)NC3=O)cc2)CCC(O)CC1 (stereo not drawn) [5-[4-(4-hydroxy-1-methylcyclohexylmethoxy)benzyl]thiazolidine-2,4-dione]",≥ 5000 mg/kg
3,"CC1(COc2ccc(CC3SC(=O)NC3=O)cc2)CCC(=O)CC1 (stereo not drawn) [Example 3, 5-[4-(1-methyl-4-oxocyclohexylmethoxy)benzyl]thiazolidine-2,4-dione]",≥ 5000 mg/kg
4,"CC1(COc2ccc(CC3SC(=O)NC3=O)cc2)CCCCC1=O (stereo not drawn) [Test compound 3, 5-[4-(1-methyl-2-oxocyclohexylmethoxy)-benzyl]thiazolidine-2,4-dione]",≥ 5000 mg/kg
